The structures appear in SMILES notation. Counter-ions that a name gives are not always drawn.

What is called IC50 is the midpoint of a concentration-inhibition curve. High values mean lower potency, low ones higher potency.

Sequence of ROCK2 (O75116 whole entry, species assumed): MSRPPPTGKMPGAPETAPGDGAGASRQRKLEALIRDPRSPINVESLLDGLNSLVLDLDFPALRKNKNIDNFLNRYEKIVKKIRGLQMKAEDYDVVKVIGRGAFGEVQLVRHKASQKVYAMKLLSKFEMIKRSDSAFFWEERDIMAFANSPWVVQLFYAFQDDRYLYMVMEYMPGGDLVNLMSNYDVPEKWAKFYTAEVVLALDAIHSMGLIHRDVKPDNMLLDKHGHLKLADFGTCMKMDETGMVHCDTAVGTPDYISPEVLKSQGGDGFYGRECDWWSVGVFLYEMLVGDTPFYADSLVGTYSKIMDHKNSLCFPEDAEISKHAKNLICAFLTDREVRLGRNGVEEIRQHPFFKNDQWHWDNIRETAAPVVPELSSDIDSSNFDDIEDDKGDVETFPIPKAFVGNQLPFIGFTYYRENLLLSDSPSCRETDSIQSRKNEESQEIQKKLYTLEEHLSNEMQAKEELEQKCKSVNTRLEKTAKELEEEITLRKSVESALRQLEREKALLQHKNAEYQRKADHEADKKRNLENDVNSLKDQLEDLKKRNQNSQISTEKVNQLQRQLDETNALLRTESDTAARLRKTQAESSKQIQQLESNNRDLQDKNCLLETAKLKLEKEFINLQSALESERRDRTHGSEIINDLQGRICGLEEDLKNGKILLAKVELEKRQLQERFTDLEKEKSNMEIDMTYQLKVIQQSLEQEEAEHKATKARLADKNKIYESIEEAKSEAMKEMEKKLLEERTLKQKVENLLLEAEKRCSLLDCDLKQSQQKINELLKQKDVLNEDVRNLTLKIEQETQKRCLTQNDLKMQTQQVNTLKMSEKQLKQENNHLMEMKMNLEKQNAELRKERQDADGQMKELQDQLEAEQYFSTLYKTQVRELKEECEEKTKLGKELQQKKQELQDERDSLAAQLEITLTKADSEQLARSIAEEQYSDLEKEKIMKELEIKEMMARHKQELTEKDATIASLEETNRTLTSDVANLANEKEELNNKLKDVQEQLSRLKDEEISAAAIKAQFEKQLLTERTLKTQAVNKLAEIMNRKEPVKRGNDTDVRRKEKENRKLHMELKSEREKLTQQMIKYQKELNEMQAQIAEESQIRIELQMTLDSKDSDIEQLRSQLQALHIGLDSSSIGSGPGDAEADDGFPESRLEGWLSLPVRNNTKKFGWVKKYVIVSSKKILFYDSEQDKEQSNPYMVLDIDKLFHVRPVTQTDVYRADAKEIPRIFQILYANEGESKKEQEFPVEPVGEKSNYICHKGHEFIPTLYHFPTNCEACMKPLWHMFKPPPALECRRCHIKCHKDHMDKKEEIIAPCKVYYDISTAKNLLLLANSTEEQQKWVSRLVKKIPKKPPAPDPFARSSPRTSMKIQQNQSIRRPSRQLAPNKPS

The test concerns the target ROCK2 (Homo sapiens, UniProt O75116). Nature of the test: ROCK2 kinase inhibition assay (Caliper LABCHIP, FITC peptide substrate). In kind it is biochemical. Particulars: 5 μM ATP, 1.5 μM peptide substrate; value ranges. In a few lines:
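Rho kinase with 5 μM ATP and 1.5 μM FITC-AHA-AKRRRLSSLRA-OH peptide in HEPES pH 7.5, 20 mM MgCl2, 0.015% Brij-35, 4 mM DTT, DMSO <2%. EDTA stop; phospho and non-phospho peptide separated on LabChip. IC50 from dose-response fit.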
Compound `COc1cccc(C(C(=O)NCC(C)(C)O)N2CCN(c3ccc(-c4cn[nH]c4)cc3)C2=O)c1` (single isomer, unassigned) [Example 303, 2-(3-(4-(1H-pyrazol-4-yl)phenyl)-2-oxoimidazolidin-1-yl)-N-(2-hydroxy-2-methylpropyl)-2-(3-methoxyphenyl)acetamide] gave an IC50 of 20.1 to 200 nM.
The same measure for `COc1cccc(C(C(=O)NCC(C)C)N2CCN(c3ccc(-c4cn[nH]c4)cc3)C2=O)c1` (single isomer, unassigned) [Example 294, 2-(3-(4-(1H-pyrazol-4-yl)phenyl)-2-oxoimidazolidin-1-yl)-N-isobutyl-2-(3-methoxyphenyl)acetamide]: 2.1 to 20 nM.
The same measure for `COc1cc(CN2C(=O)N(c3ccc(-c4cn[nH]c4)cn3)CC2(C)C)ccc1F` [Example 450, 1-(5-(1H-pyrazol-4-yl)pyridin-2-yl)-3-(4-fluoro-3-methoxybenzyl)-4,4-dimethylimidazolidin-2-one]: 2.1 to 20 nM; for `COc1cccc(C(CO)N2CCN(c3ccc(-c4cn[nH]c4)c(C)c3)C2=O)c1` (single isomer, unassigned) [Example 164, 1-(2-hydroxy-1-(3-methoxy-phenyl)ethyl)-3-(3-methyl-4-(1H-pyrazol-4-yl)phenyl) imidazolidin-2-one]: 200 to 2000 nM.
As to `COc1ccc(CN2CCN(c3ccc(-c4cn[nH]c4)c(F)c3)C2=O)cc1F` [Example 432, 1-(3-fluoro-4-(1H-pyrazol-4-yl)phenyl)-3-(3-fluoro-4-methoxybenzyl)imidazolidin-2-one], the IC50 was in the range of 20.1 to 200 nM.
Compound `COc1cc(N2CCN(Cc3cccc(F)c3)C2=O)ccc1-c1ccncc1` [Example 59, 1-(3-fluorobenzyl)-3-(3-methoxy-4-(pyridin-4-yl)phenyl)imidazolidin-2-one, TFA] displayed an IC50 of 20.1 to 200 nM.
With `O=c1n(Cc2cccc(F)c2)ccn1-c1ccc(-c2cn[nH]c2)cc1` [Example 321], the IC50 fell in the range of 2.1 to 20 nM.
The compound `COc1cc(C(C)n2ccn(-c3ccc(-c4cn[nH]c4)c(OC)n3)c2=O)ccc1F` (single isomer, unassigned) [Example 390, 1-(1-(4-fluoro-3-methoxyphenyl)ethyl)-3-(6-methoxy-5-(1H-pyrazol-4-yl)pyridin-2-yl)-1H-imidazol-2(3H)-one] showed an IC50 of 20.1 to 200 nM.
As for `COc1cc(CN2CCN(c3ccc(-c4cn[nH]c4)c(C#N)c3)C2=O)ccc1F` [Example 279, 5-(3-(4-fluoro-3-methoxybenzyl)-2-oxoimidazolidin-1-yl)-2-(1H-pyrazol-4-yl)benzonitrile], the IC50 was in the range of 200 to 2000 nM.
The same measure for `CNc1nc(N2CCN(Cc3cccc(OCC4CC4)c3)C2=O)ccc1-c1cn[nH]c1` [Example 201, 1-(3-(cyclopropyl-methoxy)-benzyl)-3-(6-(methyl-amino)-5-(1H-pyrazol-4-yl)pyridin-2-yl)-imidazolidin-2-one]: 200 to 2000 nM.
`O=C1CN(c2ccc(-c3cn[nH]c3)cc2)C(=O)N1Cc1ccccc1` [Example 110, 1-(4-(1H-pyrazol-4-yl)phenyl)-3-benzyl-imidazolidine-2,4-dione]: the IC50 fell in the range of 20.1 to 200 nM.
On to `COc1cc(F)cc(CN2CCN(c3cc(OC)c(-c4cn[nH]c4)cn3)C2=O)c1` [Example 472, 1-(3-fluoro-5-methoxybenzyl)-3-(4-methoxy-5-(1H-pyrazol-4-yl)pyridin-2-yl)imidazolidin-2-one], for which the IC50 lay within 2.1 to 20 nM.
`COc1cc(C(C)n2ccn(-c3ccc(-c4cn[nH]c4)cc3)c2=O)ccc1F` (single isomer, unassigned) [Example 391, 1-(4-(1H-pyrazol-4-yl)phenyl)-3-(1-(4-fluoro-3-methoxyphenyl)ethyl)-1H-imidazol-2(3H)-one]: the IC50 lay in the range of 2.1 to 20 nM.
In turn, `O=C1CN(c2ccc(-c3cn[nH]c3)cc2)C(=O)N1Cc1cc(F)ccc1F` [Example 115, 1-(4-(1H-pyrazol-4-yl)phenyl)-3-(2,5-difluorobenzyl) imidazolidine-2,4-dione] returned an IC50 of 20.1 to 200 nM.
As for `O=C1N(c2ccc(-c3cn[nH]c3)cc2)C[C@@H](CO)N1Cc1cccc(OCC2CC2)c1` [Example 476, (S)-1-(4-(1H-pyrazol-4-yl)phenyl)-3-(3-(cyclopropylmethoxy)benzyl)-4-(hydroxymethyl)imidazolidin-2-one], the figure is 2.1 to 20 nM.
As for `COc1cc(F)cc(C(C)n2ccn(-c3ccc(-c4cn[nH]c4)cn3)c2=O)c1` (single isomer, unassigned) [Example 393, 1-(5-(1H-pyrazol-4-yl)pyridin-2-yl)-3-(1-(3-fluoro-5-methoxyphenyl)ethyl)-1H-imidazol-2(3H)-one], the figure is 2.1 to 20 nM; as for `COc1cc(F)cc(Cn2ccn(-c3ccc(-c4cn[nH]c4)c(OC)n3)c2=O)c1` [Example 478, 1-(3-fluoro-5-methoxybenzyl)-3-(6-methoxy-5-(1H-pyrazol-4-yl)pyridin-2-yl)-1H-imidazol-2(3H)-one], less than 2 nM; as for `COc1nc(N2CCN(Cc3cccc(C)c3)C2=O)ccc1-c1cn[nH]c1` [Example 257, 1-(6-methoxy-5-(1H-pyrazol-4-yl)pyridin-2-yl)-3-(3-methylbenzyl)imidazolidin-2-one], 2.1 to 20 nM.
In turn, `CCc1cc(N2CCN(Cc3cc(F)cc(OC)c3)C2=O)ncc1-c1cn[nH]c1` [Example 191, 1-(4-ethyl-5-(1H-pyrazol-4-yl)pyridin-2-yl)-3-(3-fluoro-5-methoxy-benzyl) imidazolidin-2-one] displayed an IC50 of 200 to 2000 nM.
The compound `COc1cc(N2CC(=O)N(Cc3ccccc3)C2=O)ccc1-c1cn[nH]c1` [Example 98, 3-Benzyl-1-(3-methoxy-4-(1H-pyrazol-4-yl)phenyl)imidazolidine-2,4-dione] returned an IC50 of 20.1 to 200 nM.
In turn, `COc1cc(F)cc(CN2CCN(c3ccc(-c4cn[nH]c4)c(OC)n3)C2=O)c1` [Example 467, 1-(3-fluoro-5-methoxybenzyl)-3-(6-methoxy-5-(1H-pyrazol-4-yl)pyridin-2-yl)imidazolidin-2-one] returned an IC50 of less than 2 nM.
The compound `COc1cc(F)cc(C(C)n2ccn(-c3ccc(-c4cn[nH]c4)c(OC)n3)c2=O)c1` (single isomer, unassigned) [Example 398, 1-(1-(3-fluoro-5-methoxyphenyl)ethyl)-3-(6-methoxy-5-(1H-pyrazol-4-yl)pyridin-2-yl)-1H-imidazol-2(3H)-one] returned an IC50 of 2.1 to 20 nM.
As for `COc1cccc(CN2C(=O)N(c3ccc(-c4cn[nH]c4)cc3)CC2C(C)(C)O)c1` (single isomer, unassigned; (+)) [Example 45, (+)-1-(4-(1H-Pyrazol-4-yl)phenyl)-4-(2-hydroxypropan-2-yl)-3-(3-methoxybenzyl)imidazolidin-2-one], the figure is less than 2 nM.
`COc1nc(N2CCN(Cc3ccc(F)c(OCC4CC4)c3)C2=O)ccc1-c1cn[nH]c1` [Example 218, 1-(3-(cyclopropylmethoxy)-4-fluorobenzyl)-3-(6-methoxy-5-(1H-pyrazol-4-yl)pyridin-2-yl)imidazolidin-2-one]: the IC50 lay within 2.1 to 20 nM.
Regarding `COc1cc(Cn2ccn(-c3ccc(-c4cn[nH]c4)c(OC)n3)c2=O)ccc1F` [Example 477, 1-(4-fluoro-3-methoxybenzyl)-3-(6-methoxy-5-(1H-pyrazol-4-yl)pyridin-2-yl)-1H-imidazol-2(3H)-one], the IC50 is less than 2 nM.
With `COc1cccc(C(CO)N2CCN(c3ccc(-c4cn[nH]c4)cc3)C2=O)c1` (single isomer, unassigned) [Example 154, 1-(4-(1H-Pyrazol-4-yl)phenyl)-3-(2-hydroxy-1-(3-methoxyphenyl)ethyl)imidazolidin-2-one], the IC50 was in the range of 20.1 to 200 nM.
`COc1cccc(Cn2ccn(-c3ccc(-c4cn[nH]c4)cn3)c2=O)c1` [Example 344, 1-(5-(1H-pyrazol-4-yl)pyridin-2-yl)-3-(3-methoxybenzyl)-1H-imidazol-2(3H)-one] came in with an IC50 of 2.1 to 20 nM.
The compound `COc1cc(N2CCN(Cc3ccccc3-c3cn[nH]c3)C2=O)ccc1-c1cn[nH]c1` [Example 31, 1-(2-(1H-Pyrazol-4-yl)benzyl)-3-(3-methoxy-4-(1H-pyrazol-4-yl)phenyl)imidazolidin-2-one, TFA] displayed an IC50 of 20.1 to 200 nM.
As for `COc1cccc(CN2C(=O)N(c3ccc(-c4cn[nH]c4)cc3)CC2(C)C)c1` [Example 137, 1-(4-(1H-Pyrazol-4-yl)phenyl)-3-(3-methoxybenzyl)-4,4-dimethylimidazolidin-2-one], the figure is less than 2 nM; as for `COc1cccc(C(C(=O)O)n2ccn(-c3ccc(-c4cn[nH]c4)cn3)c2=O)c1` (centres unmarked) [Example 351, 2-(3-(5-(1H-pyrazol-4-yl)pyridin-2-yl)-2-oxo-2,3-dihydro-1H-imidazol-1-yl)-2-(3-methoxyphenyl)acetic acid], 200 to 2000 nM.
The compound `COc1nc(N2CCN(Cc3cc(F)cc(OCC4CC4)c3)C2=O)ccc1-c1cn[nH]c1` [Example 224, 1-(3-(cyclopropylmethoxy)-5-fluorobenzyl)-3-(6-methoxy-5-(1H-pyrazol-4-yl)pyridin-2-yl)imidazolidin-2-one] registered an IC50 of 2.1 to 20 nM.
`COc1cccc(CN2C(=O)N(c3ccc(-c4cn[nH]c4)cc3)C(=O)C2CO)c1` (centres unmarked) [Example 153, 3-(4-(1H-Pyrazol-4-yl)phenyl)-5-(hydroxymethyl)-1-(3-methoxybenzyl)imidazolidine-2,4-dione]: the IC50 was in the range of 200 to 2000 nM.
The same measure for `COc1nc(-n2ccn(Cc3cccc(OCC4CC4)c3)c2=O)ccc1-c1cn[nH]c1` [Example 378, 1-(3-(cyclopropylmethoxy)benzyl)-3-(6-methoxy-5-(1H-pyrazol-4-yl)pyridin-2-yl)-1H-imidazol-2(3H)-one]: less than 2 nM.
For `CCc1cc(-n2ccn(Cc3cc(F)cc(OC)c3)c2=O)ccc1-c1cn[nH]c1` [Example 454, 1-(3-ethyl-4-(1H-pyrazol-4-yl)phenyl)-3-(3-fluoro-5-methoxybenzyl)-1H-imidazol-2(3H)-one], the IC50 lay within 20.1 to 200 nM.
In the case of `COc1cc(F)cc(C(C)N2CCN(c3ccc(-c4cn[nH]c4)c(C)n3)C2=O)c1` (single isomer, unassigned) [Example 207, 1-(1-(3-fluoro-5-methoxyphenyl)ethyl)-3-(6-methyl-5-(1H-pyrazol-4-yl)pyridin-2-yl)imidazolidin-2-one], the IC50 lay in the range of 200 to 2000 nM.

The values are drawn from patent publication US10123993B2, “Cyclic ureas as inhibitors of rock” (BRISTOL-MYERS SQUIBB COMPANY, priority 2015, dated 2018).
